Results: ChEMBL document CHEMBL1201862, “PubChem BioAssay data set” (2004)
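Five compound concentrations were applied to cells in 96-well plates for 48 hours; endpoints were derived by simple linear interpolation of the resulting dose-response curve. GI50 is the concentration that inhibits growth by half.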 The source made the active and inactive calls. Cut-off read from the data, not from the text of the source: active = GI50 up to about 1.1 µM and inactive = higher.

Tests used:
Assay in all cases: inhibition of tumour cell growth, NCI panel, 48 h
KM12 = test system: KM12
OVCAR-3 = test system: OVCAR-3
SK-OV-3 = test system: SK-OV-3
CCRF-CEM = test system: CCRF-CEM
SR = test system: SR
ACHN = test system: ACHN
OVCAR-4 = test system: OVCAR-4
HCC 2998 = test system: HCC 2998
UACC-257 = test system: UACC-257
DU-145 = test system: DU-145
SK-MEL-2 = test system: SK-MEL-2
OVCAR-5 = test system: OVCAR-5
TK-10 = test system: TK-10
SNB-19 = test system: SNB-19
MDA-MB-435 = test system: MDA-MB-435
BT-549 = test system: BT-549
LOX IMVI = test system: LOX IMVI
HOP-62 = test system: HOP-62
MDA-N = test system: MDA-N
T47D = test system: T47D

Measured: GI50

COc1ccc(OC)c(CNc2ccc(O)c(C(=O)NCCc3ccc(F)cc3)c2)c1
inactive: KM12 9.71 µM | OVCAR-3 7.57 µM | SK-OV-3 17.3 µM | CCRF-CEM 7.23 µM | SR 3.44 µM | ACHN 24 µM | OVCAR-4 9.95 µM | HCC 2998 3.58 µM | UACC-257 13.5 µM | DU-145 12.8 µM | SK-MEL-2 8.15 µM | OVCAR-5 22.4 µM | TK-10 28.9 µM | SNB-19 15.1 µM | MDA-MB-435 2.74 µM | BT-549 17.1 µM | LOX IMVI 11.1 µM | HOP-62 4.08 µM | MDA-N 4.06 µM

Cc1ccc(C(CC(=O)C(C)(C)CN2CCCCC2)SCCS(=O)(=O)O)cc1 (centres undefined)
inactive: KM12 31.1 µM | OVCAR-3 15.5 µM | SK-OV-3 49.3 µM | CCRF-CEM 19.3 µM | SR 12.2 µM | ACHN 25.2 µM | OVCAR-4 31.6 µM | HCC 2998 39.4 µM | DU-145 41.9 µM | SK-MEL-2 12.5 µM | OVCAR-5 20.9 µM | TK-10 25.9 µM | SNB-19 57.4 µM | MDA-MB-435 23.7 µM | BT-549 74.6 µM | HOP-62 36.6 µM | MDA-N 31 µM

S=C(S)NCCCn1ccnc1
inactive: KM12 > 100 µM | OVCAR-3 > 100 µM | SK-OV-3 > 100 µM | SR > 100 µM | ACHN > 100 µM | OVCAR-4 > 100 µM | UACC-257 > 100 µM | DU-145 > 100 µM | SK-MEL-2 > 100 µM | OVCAR-5 > 100 µM | TK-10 > 100 µM | T47D > 100 µM | SNB-19 > 100 µM | MDA-MB-435 > 100 µM | BT-549 > 100 µM | LOX IMVI > 100 µM | HOP-62 > 100 µM | MDA-N > 100 µM

Cc1ccc(C2=Nc3ccccc3SC(c3cccc([N+](=O)[O-])c3)C2)cc1 (centres undefined)
inactive: KM12 8.04 µM | OVCAR-3 8.59 µM | SK-OV-3 31.1 µM | ACHN > 100 µM | OVCAR-4 27.4 µM | UACC-257 24.7 µM | DU-145 13.1 µM | SK-MEL-2 34 µM | OVCAR-5 > 100 µM | TK-10 14.5 µM | T47D 10.7 µM | SNB-19 26.9 µM | MDA-MB-435 13.1 µM | BT-549 15.7 µM | HOP-62 27.6 µM | MDA-N 15.7 µM

O=C(c1ccccc1)c1ccc2c(c1)nc1n2C(c2c(F)cccc2F)SC1 (centres undefined)
inactive: KM12 11.2 µM | OVCAR-3 19.9 µM | SK-OV-3 30.5 µM | ACHN 28.8 µM | OVCAR-4 21.7 µM | HCC 2998 36.5 µM | UACC-257 29.6 µM | DU-145 40.5 µM | SK-MEL-2 18.5 µM | OVCAR-5 25.8 µM | TK-10 39.2 µM | T47D 4.71 µM | SNB-19 32.1 µM | MDA-MB-435 27.3 µM | BT-549 26.7 µM | LOX IMVI 25.6 µM | HOP-62 34 µM | MDA-N 19.7 µM

CN1C(=O)C23CCCC2CC1(c1ccccc1)S3 (centres undefined)
inactive: KM12 > 100 µM | OVCAR-3 > 100 µM | SK-OV-3 > 100 µM | SR > 100 µM | ACHN > 100 µM | OVCAR-4 56.1 µM | UACC-257 23 µM | DU-145 > 100 µM | SK-MEL-2 49.7 µM | OVCAR-5 > 100 µM | TK-10 > 100 µM | T47D 54.6 µM | SNB-19 > 100 µM | MDA-MB-435 > 100 µM | BT-549 95.5 µM | LOX IMVI > 100 µM | HOP-62 > 100 µM | MDA-N > 100 µM

COc1ccc(N2C(=O)/C(=C/c3ccc(N(CCC#N)CCC#N)cc3)N=C2c2ccccc2)cc1
inactive: KM12 > 100 µM | OVCAR-3 > 100 µM | SK-OV-3 > 100 µM | SR > 100 µM | ACHN > 100 µM | OVCAR-4 > 100 µM | UACC-257 > 100 µM | DU-145 > 100 µM | SK-MEL-2 > 100 µM | OVCAR-5 > 100 µM | TK-10 > 100 µM | T47D > 100 µM | SNB-19 > 100 µM | MDA-MB-435 > 100 µM | BT-549 > 100 µM | LOX IMVI > 100 µM | HOP-62 > 100 µM | MDA-N > 100 µM
